What was measured:
Type in all cases: cell-based
[1] = tested on: HIV-1 RT mutant K103N/P225H; test: single round infection assay, K103N/P225H; settings: for IC50: Human immunodeficiency virus 1; for fold-change of IC50 of the mutant relative to WT: K103N/P225H vs WT
Description: (§1) The human osteosarcoma cell line, HOS, was obtained from Dr. Richard Schwartz (Michigan State University, East Lansing, MI) and grown in Dulbecco’s modified Eagle’s medium (Invitrogen, Carlsbad, CA) supplemented with 5 % (v/v) fetal bovine serum, 5 % newborn calf serum, and penicillin (50 units/ml) plus streptomycin (50 µg/ml; Quality Biological, Gaithersburg, MD). Virion production and single-round infectivity assays were used to determine antiviral activity (IC50 values) of the compounds as previously described.
(§2) pNLNgoMIVR-ΔEnv.LUC has been described previously. The RT open reading frame was removed from pNLNgoMIVR-ΔEnv.LUC (digestion with SpeI and SalI) and inserted between the SpeI and SalI sites of pBluescript II KS+. Using that construct as the wild-type template, we prepared the following HIV-1 RT mutants using the QuikChange II XL (Stratagene, La Jolla, CA) site-directed mutagenesis protocol kit: L100I, K103N, Y181C, Y188L, H221Y, K103N/Y181C, G190A, G190S, M230L, P236L, L100I/K103N, K103N/P225H, V106A/G190A/F227L, V106A, L234I, V106A/F227L, V106A/L234I, V106A/F227L/L234I, E40K, D67E, K101E, V111A, E138K, M184I, M184V, K101E/M184I, K101E/M184V, E138K/M184I, E138K/M184V, K101P, Y181I, and K101P/V179I. The following sense oligonucleotides were used with matching cognate antisense oligonucleotides (not shown) (Integrated DNA Technologies, Coralville, IA) in the mutagenesis: L100I, 5′-[…]-3′; L100I 2-103, 5′-[…]-3′; K103N, 5′-[…]-3′; Y181C, 5′-[…]-3′; Y188L, 5′-[…]-3′; H221Y, 5′-[…]-3′; G190A, 5′-[…]-3′; G190S, 5′-[…]-3′; P225H, 5′-[…]-3′; F227, 5′-[…]-3′; M230L, 5′-[…]-3′; P236L, 5′-[…]-3′; V106A, 5′-[…]-3′; L234I, 5′-[…]-3′; E40K, 5′-[…]-3′; D67E, 5′-[…]-3′; K101E, 5′-[…]-3′; V111A, 5′-[…]-3′; E138K, 5′-[…]-3′; M184I, 5′-[…]-3′; M184V, 5′-[…]-3′; K101P, 5′-[…]-3′; Y181I, 5′-[…]-3′; K101P/V179I, 5′-[…]-3′. The double mutants K103N/Y181C, K103N/P225H, and L100I/K103N were made using the previously generated K103N mutant and the appropriate oligonucleotides to add the second mutation, Y181C, P225, and L100I respectively. The double mutants V106A/F227L and V106A/L234I were prepared using the previously generated V106A mutant and the appropriate oligonucleotides to add the second mutation, F227L and L234I, respectively. The double mutants K101E/M184I and K101E/M184V were constructed using the previously generated K101E mutant and the appropriate oligonucleotides to add the second mutation, M184I and M184V, respectively. The double mutants E138K/M184I and E138K/M184V were constructed using the previously generated E138K mutant and the appropriate oligonucleotides for the second mutation, M184I and M184V, respectively. The triple mutant V106A/F227L/L234I was made using the previously generated V106A/F227L double mutant and the appropriate oligonucleotides for the third mutation, L234I. The triple mutant V106A/G190A/F227L was constructed in a series of steps using the previously generated V106A mutant and the appropriate oligonucleotides for the second mutation, G190A, to generate the double mutant V106A/G190A, and then the triple mutant was made using double mutant V106A/G190A and oligonucleotides for the third mutation, F227L. The DNA sequence of each construct was verified by DNA sequence determination. The sequences encoding the mutant RTs were then subcloned into pNLNgoMIVR-ΔEnv.LUC (between the KpnI and SalI sites) to produce the mutant HIV-1 constructs. These DNA sequences were also checked independently by DNA sequence determination.
(§3) 10.1186/s12977-016-0244-2 The IC50 values (nM) of RPV and the RPV analogs were determined against the NNRTI resistant mutants were measured by using a single round infection assay, n = 4. The concentrations (nM) are measured by reductions in luciferase reporter activity followed by the standard deviations. […]

[2] = tested on: HIV-1 RT mutant E138K; test: single round infection assay, E138K; settings: for fold-change of IC50 of the mutant relative to WT: E138K vs WT; for IC50: ± SD, n=4
Description: as §1, §2, §3

[3] = tested on: HIV-1 RT mutant G190A; test: single round infection assay, G190A; settings: for IC50: Human immunodeficiency virus 1; for fold-change of IC50 of the mutant relative to WT: G190A vs WT
Description: as §1, §2, §3

[4] = tested on: HIV-1 RT mutant V106A/G190A/F227L; test: single round infection assay, V106A/G190A/F227L; settings: for IC50: Human immunodeficiency virus 1; for fold-change of IC50 of the mutant relative to WT: V106A/G190A/F227L vs WT
Description: as §1, §2, §3

[5] = tested on: HIV-1 RT mutant K101E/M184V; test: single round infection assay, K101E/M184V; settings: for fold-change of IC50 of the mutant relative to WT: K101E/M184V vs WT
Description: as §1, §2, §3

[6] = tested on: HIV-1 RT mutant K101E; test: single round infection assay, K101E; settings: for IC50: ± SD, n=4; for fold-change of IC50 of the mutant relative to WT: K101E vs WT
Description: as §1, §2, §3

[7] = tested on: HIV-1 RT mutant K101P/V179I; test: single round infection assay, K101P/V179I; settings: Human immunodeficiency virus 1
Description: as §1, §2, §3

[8] = tested on: HIV-1 RT mutant V106A/F227L/L234I; test: single round infection assay, V106A/F227L/L234I; settings: for IC50: ± SD, n=4; for fold-change of IC50 of the mutant relative to WT: V106A/F227L/L234I vs WT
Description: as §1, §2, §3

[9] = tested on: HIV-1 RT mutant E40K; test: single round infection assay, E40K; settings: for fold-change of IC50 of the mutant relative to WT: E40K vs WT
Description: as §1, §2, §3

[10] = tested on: HIV-1 RT mutant M230L; test: single round infection assay, M230L; settings: for fold-change of IC50 of the mutant relative to WT: M230L vs WT
Description: as §1, §2, §3

[11] = tested on: HIV-1 RT mutant V106A; test: single round infection assay, V106A; settings: for IC50: ± SD, n=4; for fold-change of IC50 of the mutant relative to WT: V106A vs WT
Description: as §1, §2, §3

[12] = tested on: HIV-1 RT mutant K101P; test: single round infection assay, K101P; settings: Human immunodeficiency virus 1
Description: as §1, §2, §3

[13] = tested on: HIV-1 RT mutant P236L; test: single round infection assay, P236L; settings: for IC50: Human immunodeficiency virus 1; for fold-change of IC50 of the mutant relative to WT: P236L vs WT
Description: as §1, §2, §3

[14] = Human immunodeficiency virus 1, E138K
[15] = Human immunodeficiency virus 1, K101E
[16] = Human immunodeficiency virus 1, V106A/F227L/L234I (selected by DOR)
[17] = V106A/F227L/L234I (selected by DOR)

Compound | IC50 [1] [nM] | fold-change of IC50 of the mutant relative to WT [1] | fold-change of IC50 of the mutant relative to WT [2] | IC50 ([2]; E138K) [nM] | IC50 [2, 14] [nM] | IC50 [3] [nM] | IC50 [4] [nM] | fold-change of IC50 of the mutant relative to WT [4] | fold-change of IC50 of the mutant relative to WT [5] | IC50 [6, 15] [nM] | fold-change of IC50 of the mutant relative to WT [6] | IC50 [7] [nM] | IC50 [8, 16] [nM] | IC50 [8, 17] [nM] | fold-change of IC50 of the mutant relative to WT [8] | fold-change of IC50 of the mutant relative to WT [9] | fold-change of IC50 of the mutant relative to WT [10] | fold-change of IC50 of the mutant relative to WT [11] | IC50 [12] [nM] | IC50 [13] [nM] | also measured
CC(=O)c1ccc(Nc2nc(Nc3c(C)cc(/C=C/C#N)cc3C)nc3[nH]cnc23)cc1 [compound 14] | 0.92 ± 0.14 | 2 | 6 | 2.6 ± 0.6 | < 2.5 | 0.13 ± 0.04 | 0.9 ± 0.18 | 2 | < 2 | < 2.5 | 4 | > 100 | < 5 | 2.7 ± 0.64 | 7 | < 2 | 7 | 10 | > 100 | 0.15 ± 0.05 | IC50 ([6]; K101E): 1.7 ± 0.5 nM; IC50 ([11]; Human immunodeficiency virus 1, V106A (selected by DOR)): < 5 nM; IC50 ([11]; V106A (selected by DOR)): 4.3 ± 0.5 nM
COc1ccc(Cn2cnc3c(Nc4ccc(C#N)cc4)nc(Nc4c(C)cc(/C=C/C#N)cc4C)nc32)cc1 [compound 12] | 3 ± 0.4 | 4 | 12 | – | 7.8 ± 0.64 | 0.9 ± 0.43 | 5.9 ± 0.14 | 9 | 3 | 3.3 ± 0.3 | 5 | > 100 | – | – | < 2 | < 2 | 21 | < 2 | > 100 | 0.8 ± 0.2 | fold-change of IC50 of the mutant relative to WT [3]: < 2; IC50 ([5]; Human immunodeficiency virus 1, K101E/M184V, ± SD, n=4): 1.8 ± 0.21 nM; IC50 ([9]; Human immunodeficiency virus 1, E40K, ± SD, n=4): 1 ± 0.04 nM; IC50 ([10]; Human immunodeficiency virus 1, M230L, ± SD, n=4, limit of detection 100 nM): 13.8 nM; fold-change of IC50 of the mutant relative to WT [13]: < 2
COc1ccc(Nc2nc(Nc3c(C)cc(/C=C/C#N)cc3C)nc3[nH]cnc23)cc1 [compound 16] | 2.7 ± 0.07 | 16 | 11 | 1.9 ± 0.01 | < 2.5 | 0.37 ± 0.08 | 1.7 ± 0.2 | 10 | 2 | – | 5 | > 100 | < 5 | 3 ± 0.8 | 18 | < 2 | 15 | 3 | > 100 | 0.2 | fold-change of IC50 of the mutant relative to WT [3]: 2; fold-change of IC50 of the mutant relative to WT [13]: < 2

From PMC4754833, “Rilpivirine analogs potently inhibit drug-resistant HIV-1 mutants” (Retrovirology, 2016)
